Results reported in EP2082991A1, “Method of Water Treatment” (Thermphos Trading GmbH, priority 2008, dated 2009).
Where two headings read alike, the source gives them in different places.

What was measured:
[1] = minimum concentration for full scale inhibition; 22 hours at 90 °C, pH 6; tested at 15, 30, 50, 70 and 100 ppm
Procedure: Barium sulphate scale inhibition.
This is a static test to evaluate the efficiency of phosphonates in preventing barium and strontium scale inhibition in oil field scaling conditions. The test is carried out by determining the amount of BaSO4 and SrSO4 that has precipitated after 22 hours at 90 °C in a 50/50 mixture of synthetic North Sea water and Formation water containing the phosphonates to be tested at 5 different concentrations. The amount of soluble Ba and Sr ions is determined by ICP. The results stand for the minimum phosphonate concentration for 100 % barium sulphate scale inhibition or give the scale inhibition at 100 ppm loading of phosphonate.
Test details are as follows:
Synthetic North Sea water:
• synthetic North Sea and Formation water are prepared having a pH of 6. These water solutions are preheated at 90 °C before starting the test. […] Then add to this glass bottle 50 ml of Formation water; • also prepare one blank solution by mixing 50 ml of North Sea water with 50 ml of Formation water; • put the sample bottles in an oven for 22 hours at 90 °C; • after 22 hours, take 3 ml of each test solution from the surface, filter through a 0.45 µm Millipore filter and add to a stabilizing solution.

[2] = 22 hours at 90 °C, pH 5.5
Procedure: Brine/sea water compatibility.
This test assesses sea water compatibility of the phosphonates added at: 100; 1000; 10000; and 50000 ppm to North Sea water after 22 hours at 90 °C. Calcium left in solution is measured by ICP.
Test details are as follows: • prepare synthetic North Sea water at pH 5.5; • add the phosphonate at 100, 1000, 10000 and 50000 ppm active acid to the synthetic North Sea water solution; • prepare 5 blank solutions made by mixing the required amount of distilled water with North Sea water to obtain the same dilution as obtained by the addition of […], 1000, 10000 and 50000 ppm active acid phosphonate to the synthetic North Sea water solution; • the phosphonate samples with the respective phosphonates at the 4 concentrations as well as the 5 blanks are stored in an oven at 90 °C for a period of 22-24 hours; • upon completion of the test, the samples are observed visually; • after completion of the test, the pH values are being carefully monitored and 50 ml are drawn from each sample, filtered through a […] Millipore filter and stabilized at pH<2 by addition of 37 % aqueous hydrochloric acid; • Ca tolerance values are calculated as follows: % Ca tolerance = (Vi)/(V0) × 100 [formula] • where V0 = ppm Ca found in the blank solution; and • V1 = ppm Ca found in the solution with the phosphonate.

[3] = 1 % active acid phosphonate in synthetic North Sea water, pH 5.5, 140 °C, one week
Procedure: Thermal stability assessment.
This is a test to assess the thermal stability of phosphonates in the presence of synthetic North Sea water. The test is carried out by submitting mixtures of North Sea water and phosphonates stabilized at pH 5.5 to a one week heating at 140 °C. The thermal degradation is determined by ^31P NMR analysis.

[4] = minimum phosphonate concentration for 100% calcium carbonate scale inhibition; 22 hours at 50°C, pH 9
Procedure: Testing method for calcium carbonate scale inhibition.
This is a static test to evaluate the efficiency of phosphonates in preventing calcium carbonate scale inhibition in industrial water treatment conditions. The test is carried out by determining the amount of CaCO3 that has precipitated after 22 hours at 50°C in a 50/50 mixture of cationic and anionic waters with the test phosphonates at 5 different concentrations. The amount of soluble Ca ions is analyzed by titration. Result indicates the % Ca scale inhibition provided by the 5 phosphonate concentrations. Reported results give the minimum phosphonate concentration for 100% calcium carbonate scale inhibition.
• Cationic and anionic waters are prepared at pH 9.

[5] = Peroxide stabilization procedure (perborate/TAED with iron, 40°C, thiosulphate titration); settings: 35 ppm phosphonate
Procedure: Peroxide stabilization procedure
In a 250 ml glass bottle filled with 200ml deionised water stabilized at 40°C add the following ingredients: […], 35ppm of the tested bleach stabilizer, 0.53g of sodium bicarbonate, 0.42g of sodium carbonate, 0.14g of sodium perborate tetrahydrate and 0.06g of tetra-acetyl ethylene diamine (TAED). Dissolve these ingredients in the water by using an ultrasonic bath. After one minute of such treatment the bottle is transferred to the water bath set at 40°C and samples (10 ml each) are taken from the test bottle 2, 6,10,15,20 and 30 minutes thereafter. To these samples are added 10ml of 1M potassium iodide and 10ml of 20% aqueous sulphuric acid before immediate titration with a standardized 0.01N thiosulphate solution.

[6] = 100 ppm phosphonate in North Sea water
[7] = 1000 ppm phosphonate in North Sea water
[8] = 10000 ppm phosphonate in North Sea water
[9] = 50000 ppm phosphonate in North Sea water

| Structure (SMILES) | Ba Scale Inhibition: ppm phosphonate needed for 100% BaSO4 scale inhibition [1] [ppm full scale] | Ca Tolerance in % [2, 6] [%] | Ca Tolerance in % [2, 7] [%] | Ca Tolerance in % [2, 8] [%] | Ca Tolerance in % [2, 9] [%] | Thermal Stability at 140°C 1 week Decomposition in % [3] [%] | Ca Scale Inhibition [4] [ppm full scale] | % remaining act.oxygen ([5]; 0 min) [%] | % remaining act.oxygen ([5]; 2 min) [%] | % remaining act.oxygen ([5]; 6 min) [%] | % remaining act.oxygen ([5]; 10 min) [%] | % remaining act.oxygen ([5]; 15 min) [%] | % remaining act.oxygen ([5]; 20 min) [%] | % remaining act.oxygen ([5]; 30 min) [%] |
| --- | --- | --- | --- | --- | --- | --- | --- | --- | --- | --- | --- | --- | --- | --- |
| O=P(O)(O)CN(CCO)CP(=O)(O)O [HEIBMPA, 2-Hydroxy ethyl imino bis (methylene phosphonic acid)] | 30 | 100 | 79 | 100 | 100 | 19 |  |  |  |  |  |  |  |  |
| O=P(O)(O)CN(CCN(CP(=O)(O)O)CP(=O)(O)O)CCN(CP(=O)(O)O)CP(=O)(O)O [Dequest 2066A, diethylene triaminopentamethylene phosphonate] | 15 | 100 | 89 | 24 | 100 | 24 | 2 |  |  |  |  |  |  |  |
| O=P([O-])(O)CN(CCN(CCN(CP(=O)(O)O)CP(=O)(O)O)CP(=O)(O)O)CP(=O)(O)O.[Na+] [Dequest 2066] |  |  |  |  |  |  |  | 100 | 100 | 99 | 97 | 95 | 94 | 90 |
| O=P(O)(O)CN(CCCCC(CCCN(CP(=O)(O)O)CP(=O)(O)O)CN(CP(=O)(O)O)CP(=O)(O)O)CP(=O)(O)O (centres unmarked) [AMODHMPA, 4-Aminomethyl 1,8-octane diamine hexa (methylene phosphonic acid)] | 30 | 99 | 83 | 21 | 100 | 8.8 |  |  |  |  |  |  |  |  |
